We go through two compounds from patent US9833437B2 (priority 2014, dated 2017).

Values joined by “and” are separate entries in the source; they are usually repeats but may differ in a detail not shown here. Identical values can stand only once. Like-named read-outs stand apart in the source and are kept apart here.

Test [1] concerns pro-inflammatory cytokine production of human PBMCs. Format: cell-based.
Test [2] relates to MyD88-mediated NF-kB driven SEAP reporter response. Format: cell-based, human.
For test [3], the system named is lethal endotoxic shock (LPS) in mice. The note with it: mouse, in vivo.
In test [4] the test system is VEEV (TC-83). Also on record: species or system C3H/HeN mice. The note with it: mouse, in vivo, ip.
The test system of test [5] is Ebola virus. Format: cell-based. The note with it: read-out: IC50 reduction of virus replication.
Test [6] deals with pro-inflammatory cytokine production in spleen cells of BALB/c and C57BL/6 mice. It counts as cell-based, mouse.
The subject of test [7] is dengue virus. Format: cell-based. The settings on record: read-out: IC50 reduction of virus replication.
The test system of test [8] is SEB-induced toxic shock in BALB/c mice. The settings on record: mouse, in vivo.
The subject of test [9] is Rift valley fever virus. Format: cell-based. The note with it: read-out: IC50 reduction of virus replication.
Test [10] deals with U937 cells. It counts as cell-based, human.
The subject of test [11] is human glioblastoma astrocytoma U87 cells. Format: cell-based.
The subject of test [12] is HEK293-TLR3 cells. It counts as cell-based, human.
Test [13] deals with T1, MyD88 and IRF3 interaction (Homo sapiens, UniProt Q99836).
T1 construct: no number printed for the IRF3-HA plasmid; host or cells: HEK293-TLR3 (InvivoGen)
Format: cell-based.

For test [14], the system named is IRF3 phosphorylation. It counts as cell-based, human.
Test [15] deals with Lassa virus. Format: cell-based. The settings on record: read-out: IC50 reduction of virus replication.

T1 sequence (Q99836 whole entry): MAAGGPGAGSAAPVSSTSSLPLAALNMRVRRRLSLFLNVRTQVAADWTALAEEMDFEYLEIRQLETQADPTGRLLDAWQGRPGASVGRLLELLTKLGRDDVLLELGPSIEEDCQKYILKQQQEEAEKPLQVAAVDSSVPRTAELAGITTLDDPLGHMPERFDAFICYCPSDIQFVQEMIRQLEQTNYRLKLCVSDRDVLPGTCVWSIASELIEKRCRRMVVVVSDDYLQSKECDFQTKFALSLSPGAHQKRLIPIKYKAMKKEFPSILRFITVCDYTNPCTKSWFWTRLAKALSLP

Turning to `CC(C)[C@H](NC(=O)CCc1ccccc1)C(=O)N1CCCC1` [Compound 1, Hydrocinnamoyl-L-valyl-pyrrolidine, reference compound], the IC50 in test [1] (read-out: IC50 IFN-γ) was 41 µM and 40 µM; in test [1] (read-out: IC50 IL-1β), 24 µM; in test [1] (read-out: IC50 IL-6) it was 14 µM; in test [1] (read-out: IC50 TNF-α), 19 µM; in test [2], 180 µM.

With `CC(C)[C@@H](C(=O)N1CCCC1)N(CCCc1ccccc1)C(=O)[C@H]1CC[C@H](C(=O)N(CCCc2ccccc2)[C@H](C(=O)N2CCCC2)C(C)C)CC1` [Compound 4210], the effect on death entry in [3] was “delayed death”. The “mice protected from lethal endotoxic shock” value in test [3] came to 33%. In addition, the clinical disease score result in test [4] is “less clinical diseases score”. For the same compound, the survival entry in test [4] is reported as “increased survival”. The weight loss result in test [4] is “significantly prevented weight loss”. Further, the IC50 in test [5] was 42 µM; in test [7], 31 µM; in [1] (read-out: IC50 IFN-γ) it was 0.3 µM and 0.9 µM; in test [1] (read-out: IC50 IL-1β), 0.73 µM; in test [1] (read-out: IC50 IL-6), 0.4 µM and 0.17 µM; in test [1] (read-out: IC50 TNF-α), 0.27 µM. Also, the IC50 in [1] (read-out: average inhibitory concentration (IC50) for most of the pro-inflammatory cytokines tested) was 1 to 50 µM; in [9], 22 µM; in test [15], 35 µM. Further, the “inhibition of pro-inflammatory cytokine production in spleen cell cultures” value in [6] is listed as “inhibited most of the pro-inflammatory cytokine production”. For the same compound, the “inhibition of cytokine production” value in [1] was “inhibited cytokine production”. Moreover, the “amount giving therapeutic efficacy from toxic shock-induced death with lethal SEB challenge” value in test [8] worked out at 1 mg. In addition, the “effect on death, post-exposure treatment” value in test [8] is “delayed in death”. Moreover, the protection result in test [8] is on record as “completely protected”. Besides, the “protection, post-exposure treatment” value in test [8] is recorded as 33%. Besides, the survivability in [8] was 33% and 66%. In addition, the RANTES production result in [10] is given as “increase in antiviral RANTES production”; in test [11], “increase in RANTES production”; in [12] it was “increased in RANTES production”. For the same compound, the “expression of co-stimulatory molecules CD86 and CD80” value in [10] is “increased expression co-stimulatory molecules such as CD86 and CD80”. Further, the “increase in IFN-β production” value in [10] is recorded as “over 3 fold”. Besides, the IFN-β production result in [11] is “increased IFN-β production in a dose dependent manner”. The “MyD88-associated IRF3 band after pull down with Flag antibody” value in test [13] is “dose dependent decrease of IRF3 band”. The “phosphorylation of IRF-3” value in test [14] is given as “increase in phosphorylation was observed in a dose dependent manner”.
